Calls of active or inactive are those of the source.
How the values were obtained:
[1] = target: Serine/threonine-protein kinase MRCK gamma (Homo sapiens, UniProt Q6DT37)
[2] = target: Cyclin-dependent kinase 3 (Homo sapiens, UniProt Q00526)
Ephrin type-B receptor 4 = target: T1, Ephrin type-B receptor 4 (Homo sapiens, UniProt P54760)
T1 sequence (P54760 whole entry): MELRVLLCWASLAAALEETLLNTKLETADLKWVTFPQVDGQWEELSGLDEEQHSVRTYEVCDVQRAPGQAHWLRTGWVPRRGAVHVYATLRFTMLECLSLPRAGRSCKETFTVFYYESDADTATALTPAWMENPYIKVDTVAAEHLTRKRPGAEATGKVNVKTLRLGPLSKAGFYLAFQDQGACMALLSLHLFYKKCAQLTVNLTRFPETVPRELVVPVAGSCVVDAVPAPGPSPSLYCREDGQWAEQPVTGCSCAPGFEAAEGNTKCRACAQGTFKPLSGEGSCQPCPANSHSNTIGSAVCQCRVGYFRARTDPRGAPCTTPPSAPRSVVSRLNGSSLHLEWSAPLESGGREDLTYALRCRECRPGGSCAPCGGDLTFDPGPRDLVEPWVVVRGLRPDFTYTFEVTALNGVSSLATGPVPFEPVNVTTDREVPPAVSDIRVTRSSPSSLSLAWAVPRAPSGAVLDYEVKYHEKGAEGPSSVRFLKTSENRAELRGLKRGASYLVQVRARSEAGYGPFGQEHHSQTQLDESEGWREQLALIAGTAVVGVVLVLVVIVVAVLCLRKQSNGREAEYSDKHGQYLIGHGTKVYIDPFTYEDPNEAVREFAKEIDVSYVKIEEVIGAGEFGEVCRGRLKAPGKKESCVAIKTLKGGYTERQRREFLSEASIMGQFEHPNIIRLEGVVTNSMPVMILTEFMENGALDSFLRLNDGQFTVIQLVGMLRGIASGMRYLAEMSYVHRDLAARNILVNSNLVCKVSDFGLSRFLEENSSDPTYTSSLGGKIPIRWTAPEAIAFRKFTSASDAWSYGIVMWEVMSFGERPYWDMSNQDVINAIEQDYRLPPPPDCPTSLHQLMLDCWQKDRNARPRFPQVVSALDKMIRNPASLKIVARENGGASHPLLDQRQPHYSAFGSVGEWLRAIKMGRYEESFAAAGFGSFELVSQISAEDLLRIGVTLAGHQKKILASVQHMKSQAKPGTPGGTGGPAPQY

[3] = target: T2, Membrane-associated tyrosine- and threonine-specific cdc2-inhibitory kinase (Homo sapiens, UniProt Q99640)
T2 sequence (Q99640 whole entry): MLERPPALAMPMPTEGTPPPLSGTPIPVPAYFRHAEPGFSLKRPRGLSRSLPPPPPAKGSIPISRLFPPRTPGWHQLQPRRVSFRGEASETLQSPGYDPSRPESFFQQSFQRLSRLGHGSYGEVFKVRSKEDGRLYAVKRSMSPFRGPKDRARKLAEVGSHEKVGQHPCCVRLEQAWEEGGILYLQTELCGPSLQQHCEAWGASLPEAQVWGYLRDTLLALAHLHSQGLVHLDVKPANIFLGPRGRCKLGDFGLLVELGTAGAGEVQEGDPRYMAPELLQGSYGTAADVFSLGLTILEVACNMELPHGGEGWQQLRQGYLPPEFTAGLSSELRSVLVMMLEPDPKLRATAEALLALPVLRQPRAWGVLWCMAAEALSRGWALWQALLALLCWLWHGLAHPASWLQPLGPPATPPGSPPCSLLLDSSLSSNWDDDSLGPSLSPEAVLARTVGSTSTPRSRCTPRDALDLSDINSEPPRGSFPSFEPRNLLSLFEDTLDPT

[4] = target: U5 small nuclear ribonucleoprotein 200 kDa helicase (Homo sapiens, UniProt O75643)
TGF-beta receptor type-2 = TGF-beta receptor type-2 (Homo sapiens, UniProt P37173)
[5] = target: T3, ATP-dependent RNA helicase DDX1 (Homo sapiens, UniProt Q92499)
T3 sequence (Q92499 whole entry): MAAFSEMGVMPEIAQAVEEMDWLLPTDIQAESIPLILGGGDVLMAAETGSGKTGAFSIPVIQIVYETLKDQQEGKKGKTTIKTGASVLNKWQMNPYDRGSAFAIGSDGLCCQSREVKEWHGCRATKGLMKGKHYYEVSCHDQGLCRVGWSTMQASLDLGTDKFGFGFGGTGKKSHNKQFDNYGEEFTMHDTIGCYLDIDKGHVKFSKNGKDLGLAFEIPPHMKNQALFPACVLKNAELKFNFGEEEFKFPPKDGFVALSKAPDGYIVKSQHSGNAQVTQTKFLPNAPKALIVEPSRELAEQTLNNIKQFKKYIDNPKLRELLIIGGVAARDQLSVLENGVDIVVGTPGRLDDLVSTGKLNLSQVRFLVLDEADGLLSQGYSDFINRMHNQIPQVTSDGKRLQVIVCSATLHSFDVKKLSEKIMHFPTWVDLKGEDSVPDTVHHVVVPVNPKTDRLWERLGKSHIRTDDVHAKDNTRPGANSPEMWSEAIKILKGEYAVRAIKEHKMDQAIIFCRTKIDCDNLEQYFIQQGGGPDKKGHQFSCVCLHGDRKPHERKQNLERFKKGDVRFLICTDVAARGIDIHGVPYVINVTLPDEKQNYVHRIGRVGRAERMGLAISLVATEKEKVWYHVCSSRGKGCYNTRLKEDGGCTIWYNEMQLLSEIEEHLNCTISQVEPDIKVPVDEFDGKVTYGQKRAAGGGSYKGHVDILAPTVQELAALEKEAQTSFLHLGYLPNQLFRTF
Also: in the data inactive means no Kd found up to 30 µM.

Sequence of TGF-beta receptor type-2 (P37173 whole entry): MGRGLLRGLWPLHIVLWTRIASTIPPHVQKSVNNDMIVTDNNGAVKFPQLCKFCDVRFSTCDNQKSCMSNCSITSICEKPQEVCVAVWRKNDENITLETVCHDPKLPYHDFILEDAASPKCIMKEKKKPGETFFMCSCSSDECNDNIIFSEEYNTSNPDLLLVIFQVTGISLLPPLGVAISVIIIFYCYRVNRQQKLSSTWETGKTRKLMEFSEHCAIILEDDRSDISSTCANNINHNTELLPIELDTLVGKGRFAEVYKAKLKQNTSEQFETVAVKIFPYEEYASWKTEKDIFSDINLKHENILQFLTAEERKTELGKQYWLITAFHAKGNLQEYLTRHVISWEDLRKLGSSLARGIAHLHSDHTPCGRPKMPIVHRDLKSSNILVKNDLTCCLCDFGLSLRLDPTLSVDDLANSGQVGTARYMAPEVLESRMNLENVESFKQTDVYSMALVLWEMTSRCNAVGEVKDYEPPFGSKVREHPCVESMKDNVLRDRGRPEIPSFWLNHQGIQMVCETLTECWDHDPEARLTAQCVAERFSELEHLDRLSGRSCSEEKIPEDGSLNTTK
Sequence of Serine/threonine-protein kinase MRCK gamma (Q6DT37 whole entry): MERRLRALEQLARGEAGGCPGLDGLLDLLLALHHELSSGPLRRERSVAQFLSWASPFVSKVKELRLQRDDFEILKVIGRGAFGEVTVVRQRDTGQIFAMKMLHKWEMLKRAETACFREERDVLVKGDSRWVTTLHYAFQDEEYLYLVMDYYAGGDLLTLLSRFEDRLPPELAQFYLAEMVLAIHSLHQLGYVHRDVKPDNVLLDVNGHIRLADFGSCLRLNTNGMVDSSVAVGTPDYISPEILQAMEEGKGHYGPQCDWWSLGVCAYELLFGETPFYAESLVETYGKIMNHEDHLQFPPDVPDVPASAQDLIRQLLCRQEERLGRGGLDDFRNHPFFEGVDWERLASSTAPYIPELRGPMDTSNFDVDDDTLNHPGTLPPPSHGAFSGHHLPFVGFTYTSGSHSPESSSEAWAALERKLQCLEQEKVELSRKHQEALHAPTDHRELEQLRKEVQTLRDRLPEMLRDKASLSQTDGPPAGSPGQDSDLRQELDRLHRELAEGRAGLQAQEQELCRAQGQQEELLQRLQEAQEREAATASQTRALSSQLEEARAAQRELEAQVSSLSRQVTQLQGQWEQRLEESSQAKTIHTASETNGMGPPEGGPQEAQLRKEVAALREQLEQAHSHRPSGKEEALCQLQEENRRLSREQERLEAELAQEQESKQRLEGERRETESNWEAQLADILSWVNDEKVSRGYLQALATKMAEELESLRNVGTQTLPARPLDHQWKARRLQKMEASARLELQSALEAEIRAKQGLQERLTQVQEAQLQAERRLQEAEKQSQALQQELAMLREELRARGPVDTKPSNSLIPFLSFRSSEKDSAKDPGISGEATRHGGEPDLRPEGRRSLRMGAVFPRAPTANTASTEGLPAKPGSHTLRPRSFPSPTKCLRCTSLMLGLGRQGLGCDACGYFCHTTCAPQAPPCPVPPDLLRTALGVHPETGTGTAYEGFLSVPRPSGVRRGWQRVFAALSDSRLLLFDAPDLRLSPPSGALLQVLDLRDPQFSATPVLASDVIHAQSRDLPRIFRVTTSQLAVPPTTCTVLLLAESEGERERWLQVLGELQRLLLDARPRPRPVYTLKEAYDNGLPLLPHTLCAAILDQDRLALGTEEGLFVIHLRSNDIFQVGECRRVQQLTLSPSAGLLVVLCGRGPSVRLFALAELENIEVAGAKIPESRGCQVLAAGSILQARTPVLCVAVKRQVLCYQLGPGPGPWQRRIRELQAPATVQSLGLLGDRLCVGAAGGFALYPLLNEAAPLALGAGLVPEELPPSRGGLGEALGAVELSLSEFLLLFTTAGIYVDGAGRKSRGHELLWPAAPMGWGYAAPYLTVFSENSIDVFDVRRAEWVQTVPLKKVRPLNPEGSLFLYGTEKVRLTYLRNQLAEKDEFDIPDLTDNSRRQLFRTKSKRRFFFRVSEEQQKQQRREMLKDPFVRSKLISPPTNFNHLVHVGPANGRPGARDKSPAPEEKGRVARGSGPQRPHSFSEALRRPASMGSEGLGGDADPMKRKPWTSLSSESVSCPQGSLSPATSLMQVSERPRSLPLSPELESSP
Sequence of Cyclin-dependent kinase 3 (Q00526 whole entry): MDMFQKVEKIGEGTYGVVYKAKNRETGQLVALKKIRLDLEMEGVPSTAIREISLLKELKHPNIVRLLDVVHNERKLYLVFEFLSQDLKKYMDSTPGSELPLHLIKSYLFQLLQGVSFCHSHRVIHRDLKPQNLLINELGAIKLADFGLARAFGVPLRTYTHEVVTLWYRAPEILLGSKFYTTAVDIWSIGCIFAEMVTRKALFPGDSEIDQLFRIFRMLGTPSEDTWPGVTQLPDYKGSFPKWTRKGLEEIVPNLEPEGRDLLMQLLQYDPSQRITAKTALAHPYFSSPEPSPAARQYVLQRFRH
Sequence of U5 small nuclear ribonucleoprotein 200 kDa helicase (O75643 whole entry): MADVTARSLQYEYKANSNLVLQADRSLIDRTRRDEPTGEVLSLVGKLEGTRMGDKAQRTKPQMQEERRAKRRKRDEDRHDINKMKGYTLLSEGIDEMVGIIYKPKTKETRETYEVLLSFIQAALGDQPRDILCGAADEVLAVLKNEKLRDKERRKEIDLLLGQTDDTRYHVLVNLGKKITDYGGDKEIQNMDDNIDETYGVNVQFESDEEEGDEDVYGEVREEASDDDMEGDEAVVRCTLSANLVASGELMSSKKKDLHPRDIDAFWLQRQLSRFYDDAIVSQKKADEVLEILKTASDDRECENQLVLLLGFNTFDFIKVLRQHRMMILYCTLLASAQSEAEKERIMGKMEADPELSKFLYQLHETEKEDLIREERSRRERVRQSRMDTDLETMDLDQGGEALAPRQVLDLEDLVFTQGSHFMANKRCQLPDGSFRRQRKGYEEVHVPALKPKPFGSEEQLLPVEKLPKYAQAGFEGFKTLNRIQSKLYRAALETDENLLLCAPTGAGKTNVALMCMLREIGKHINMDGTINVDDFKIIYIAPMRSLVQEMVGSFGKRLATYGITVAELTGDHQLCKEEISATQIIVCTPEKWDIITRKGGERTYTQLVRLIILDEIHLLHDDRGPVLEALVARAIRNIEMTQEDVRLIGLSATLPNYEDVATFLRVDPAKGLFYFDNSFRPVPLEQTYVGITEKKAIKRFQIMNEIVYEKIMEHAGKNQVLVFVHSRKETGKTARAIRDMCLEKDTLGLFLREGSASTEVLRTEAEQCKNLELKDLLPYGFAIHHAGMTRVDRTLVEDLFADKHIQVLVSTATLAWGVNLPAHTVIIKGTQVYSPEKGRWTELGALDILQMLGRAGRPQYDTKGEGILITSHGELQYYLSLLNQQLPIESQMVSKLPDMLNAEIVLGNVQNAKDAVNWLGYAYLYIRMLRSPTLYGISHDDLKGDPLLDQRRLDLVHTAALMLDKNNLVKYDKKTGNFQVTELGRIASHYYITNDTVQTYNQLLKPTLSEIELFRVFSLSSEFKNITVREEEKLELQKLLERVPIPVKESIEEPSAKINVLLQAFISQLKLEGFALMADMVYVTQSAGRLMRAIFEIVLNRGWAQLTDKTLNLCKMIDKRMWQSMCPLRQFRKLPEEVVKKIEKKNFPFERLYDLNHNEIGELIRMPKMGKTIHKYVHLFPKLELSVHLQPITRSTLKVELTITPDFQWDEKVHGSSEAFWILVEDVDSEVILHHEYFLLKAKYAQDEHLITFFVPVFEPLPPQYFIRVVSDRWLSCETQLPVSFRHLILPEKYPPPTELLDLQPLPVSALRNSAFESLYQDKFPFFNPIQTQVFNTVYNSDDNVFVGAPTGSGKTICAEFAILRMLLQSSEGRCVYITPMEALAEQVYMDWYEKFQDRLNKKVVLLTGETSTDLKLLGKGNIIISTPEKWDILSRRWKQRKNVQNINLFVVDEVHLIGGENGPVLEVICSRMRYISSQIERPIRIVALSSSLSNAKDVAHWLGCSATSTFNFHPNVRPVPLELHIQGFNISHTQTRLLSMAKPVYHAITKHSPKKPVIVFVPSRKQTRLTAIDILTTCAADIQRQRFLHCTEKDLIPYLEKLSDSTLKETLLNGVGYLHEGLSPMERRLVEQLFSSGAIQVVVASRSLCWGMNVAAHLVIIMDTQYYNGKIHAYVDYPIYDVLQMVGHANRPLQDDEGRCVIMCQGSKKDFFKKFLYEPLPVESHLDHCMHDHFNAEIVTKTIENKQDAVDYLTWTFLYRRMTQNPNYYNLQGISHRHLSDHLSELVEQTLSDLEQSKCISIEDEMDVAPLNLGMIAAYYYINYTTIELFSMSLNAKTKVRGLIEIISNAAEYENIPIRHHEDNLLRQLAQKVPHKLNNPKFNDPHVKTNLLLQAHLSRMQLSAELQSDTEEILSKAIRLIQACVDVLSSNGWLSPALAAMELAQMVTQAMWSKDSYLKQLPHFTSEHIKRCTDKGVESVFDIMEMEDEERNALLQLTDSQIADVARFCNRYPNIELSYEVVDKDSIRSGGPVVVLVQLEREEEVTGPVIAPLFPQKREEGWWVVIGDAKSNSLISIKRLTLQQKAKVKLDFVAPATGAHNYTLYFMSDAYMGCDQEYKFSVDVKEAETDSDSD

Row | SMILES | Kd [1] | Kd [2] | Kd (Ephrin type-B receptor 4) | Kd [3] | Kd [4] | Kd (TGF-beta receptor type-2) | Kd [5]
1 | C[C@@H](Oc1cc(C(=O)Nc2ccc(C(=O)N3CCN(C)CC3)cc2)nnc1N)c1c(Cl)ccc(F)c1Cl | > 30 µM (inactive) | > 30 µM (inactive) | > 30 µM (inactive) | > 30 µM (inactive) | > 30 µM (inactive) | > 30 µM (inactive) | –
2 | C[C@H]1CNCCCN1S(=O)(=O)c1cccc2cncc(F)c12 | > 30 µM (inactive) | > 30 µM (inactive) | > 30 µM (inactive) | > 30 µM (inactive) | > 30 µM (inactive) | – | > 30 µM (inactive)
3 | CC(=O)c1cnc2ccc(-c3cc(Cl)c(O)c(Cl)c3)nc2c1N[C@H]1CC[C@H](CN(C)C)CC1 | 0.063 µM | > 30 µM (inactive) | 0.143 µM (active) | > 30 µM (inactive) | > 30 µM (inactive) | > 30 µM (inactive) | > 30 µM (inactive)
4 | CCNC(=O)C#Cc1ccc2c(c1)NC(=O)/C2=C(\Nc1ccc(CN(C)C)cc1)c1ccccc1 | – | 0.897 µM (active) | > 30 µM (inactive) | > 30 µM (inactive) | > 30 µM (inactive) | > 30 µM (inactive) | > 30 µM (inactive)
5 | COCc1c(-c2ccc(NC(=O)Nc3cc(C(F)(F)F)ccc3F)c(F)c2)c2c(N)ncnn2c1CN1CCOCC1 | – | > 30 µM (inactive) | > 30 µM (inactive) | > 30 µM (inactive) | > 30 µM (inactive) | > 30 µM (inactive) | > 30 µM (inactive)
6 | COc1cc(Nc2ncc3c(n2)-c2ccc(Cl)cc2C(c2c(F)cccc2OC)=NC3)ccc1C(=O)O [ALISERTIB] | > 30 µM (inactive) | > 30 µM (inactive) | – | > 30 µM (inactive) | > 30 µM (inactive) | > 30 µM (inactive) | > 30 µM (inactive)
7 | Cc1nc(NC(=O)N2CCC[C@H]2C(N)=O)sc1-c1ccnc(C(C)(C)C(F)(F)F)c1 [ALPELISIB] | > 30 µM (inactive) | > 30 µM (inactive) | > 30 µM (inactive) | > 30 µM (inactive) | > 30 µM (inactive) | – | > 30 µM (inactive)
8 | CNC(=O)c1ccccc1Sc1ccc2c(/C=C/c3ccccn3)n[nH]c2c1 [AXITINIB] | – | – | – | – | > 30 µM (inactive) | – | > 30 µM (inactive)
9 | CC(C)(C)c1nc(-c2cccc(NS(=O)(=O)c3c(F)cccc3F)c2F)c(-c2ccnc(N)n2)s1 [DABRAFENIB] | > 30 µM (inactive) | – | – | > 30 µM (inactive) | > 30 µM (inactive) | 2.53 µM (active) | > 30 µM (inactive)
10 | Cn1cc(C2=C(c3cn(C4CCN(Cc5ccccn5)CC4)c4ccccc34)C(=O)NC2=O)c2ccccc21 [ENZASTAURIN] | – | – | – | – | > 30 µM (inactive) | – | > 30 µM (inactive)
11 | CNC(=O)c1nn(C)c2c1C(C)(C)Cc1cnc(Nc3ccc(N4CCN(C)CC4)cc3)nc1-2 [MILCICLIB] | > 30 µM (inactive) | > 30 µM (inactive) | 1.07 µM (active) | > 30 µM (inactive) | > 30 µM (inactive) | > 30 µM (inactive) | –
12 | CCCCCCCCCCCCCCCCCCOP(=O)([O-])OC1CC[N+](C)(C)CC1 [PERIFOSINE] | – | > 30 µM (inactive) | > 30 µM (inactive) | > 30 µM (inactive) | > 30 µM (inactive) | – | > 30 µM (inactive)
13 | N#CC1(c2ccc(NC(=O)c3cccnc3NCc3ccncc3)cc2)CCCC1 [RIVOCERANIB] | > 30 µM (inactive) | – | > 30 µM (inactive) | > 30 µM (inactive) | > 30 µM (inactive) | > 30 µM (inactive) | > 30 µM (inactive)
14 | N#CC[C@H](C1CCCC1)n1cc(-c2ncnc3[nH]ccc23)cn1 [RUXOLITINIB] | – | – | – | – | > 30 µM (inactive) | – | > 30 µM (inactive)
15 | CN1CCN(CCOc2cc(OC3CCOCC3)c3c(Nc4c(Cl)ccc5c4OCO5)ncnc3c2)CC1 [SARACATINIB] | > 30 µM (inactive) | > 30 µM (inactive) | 3.88 µM (active) | – | > 30 µM (inactive) | > 30 µM (inactive) | > 30 µM (inactive)
16 | CO[C@H]1C[C@@H]2CC[C@@H](C)[C@@](O)(O2)C(=O)C(=O)N2CCCC[C@H]2C(=O)O[C@H]([C@H](C)C[C@@H]2CC[C@@H](O)[C@H](OC)C2)CC(=O)[C@H](C)/C=C(\C)[C@@H](O)[C@@H](OC)C(=O)[C@H](C)C[C@H](C)/C=C/C=C/C=C/1C [SIROLIMUS] | > 30 µM (inactive) | – | > 30 µM (inactive) | > 30 µM (inactive) | > 30 µM (inactive) | > 30 µM (inactive) | > 30 µM (inactive)
17 | Cn1ncc(Cl)c1-c1cc(C(=O)N[C@H](CN)Cc2ccc(F)c(F)c2)oc1Cl [UPROSERTIB] | > 30 µM (inactive) | > 30 µM (inactive) | > 30 µM (inactive) | > 30 µM (inactive) | > 30 µM (inactive) | – | > 30 µM (inactive)

Results, then the compound that gave them:

Row | Kd [1] | Kd [2] | Kd (Ephrin type-B receptor 4) | Kd [3] | Kd [4] | Kd (TGF-beta receptor type-2) | Kd [5] | SMILES
18 | > 30 µM (inactive) | > 30 µM (inactive) | – | > 30 µM (inactive) | > 30 µM (inactive) | – | > 30 µM (inactive) | O=C(Nc1c[nH]nc1-c1nc2cc(CN3CCOCC3)ccc2[nH]1)NC1CC1 [AT-9283]
19 | – | – | – | – | > 30 µM (inactive) | – | > 30 µM (inactive) | C[C@@H](Oc1cc(-n2cnc3ccc(CN4CCN(C)CC4)cc32)sc1C(N)=O)c1ccccc1C(F)(F)F [GSK-461364]
20 | – | > 30 µM (inactive) | > 30 µM (inactive) | > 30 µM (inactive) | > 30 µM (inactive) | > 30 µM (inactive) | > 30 µM (inactive) | CCn1cc(-c2ccnc3[nH]c(-c4cccc(CN(C)C)c4)cc23)c(-c2ccc(NC(=O)N(C)C)cc2)n1 [GSK-1070916]
21 | > 30 µM (inactive) | > 30 µM (inactive) | > 30 µM (inactive) | > 30 µM (inactive) | > 30 µM (inactive) | – | – | NC(=O)c1c(OCc2c(F)cc(Br)cc2F)nsc1NC(=O)NCCCCN1CCCC1 [OSI-632]
22 | – | – | – | – | > 30 µM (inactive) | – | > 30 µM (inactive) | O=C(NOCCO)c1cc(CN2OCCCC2=O)c(F)c(F)c1Nc1ccc(I)cc1F [RO-4987655]
23 | – | 0.429 µM | 0.292 µM (active) | > 30 µM (inactive) | > 30 µM (inactive) | > 30 µM (inactive) | > 30 µM (inactive) | CC(C)c1cc(CNc2nc(Nc3cc(C4CC4)[nH]n3)cc(N3CCN(C)CC3)n2)on1 [XL-228]
24 | – | > 30 µM (inactive) | > 30 µM (inactive) | > 30 µM (inactive) | > 30 µM (inactive) | > 30 µM (inactive) | > 30 µM (inactive) | C[C@@H](N)c1ccc(C(=O)Nc2ccnc3[nH]ccc23)cc1 [Y-39983]

Reference: ChEMBL document CHEMBL3991601, “The target landscape of clinical kinase drugs” (Science, 2017)
